In one assay the target is T1, HiBit-BRM fusion protein (Homo sapiens, UniProt P51531).
T1 construct: expressed in transfected cells
As to the kind of experiment: HiBiT-BRM cell-based degradation assay (Nano-Glo HiBiT Lytic Detection, 24 h). To be noted: HeLa cells expressing HiBiT-BRM; for DC50: read-out: BRM HiBit Degradation IC50; for BRM HiBit Degradation Maximum measured: top dose 30 μM. As for the experimental part: Procedure: A stable HeLa cell line expressing HiBiT-BRM was generated. On day 0, 5000 cells were seeded in 40 μL of media into each well of 384-well cell culture plates. On day 1, cells were treated with 120 nL DMSO or 120 nL of 3-fold serially DMSO-diluted compounds (10 points in duplicate with 30 μM as final top dose). Subsequently plates were incubated for 24 h in a standard tissue culture incubator and equilibrated at room temperature for 15 minutes. Nano-Glo HiBiT Lytic Detection System (Promega N3050) reagent was freshly prepared and 20 ul was added to each well. Upon addition of this LgBit-containing reagent, the HiBiT and LgBiT proteins associate to form the luminescent NanoBiT luciferase. The plates were shaken for 10 minutes at room temperature and the bioluminescence read using an EnVision plate reader (PerkinElmer).
(§1) The degradation % was calculated using the following formula: % degradation=100%−100%×(LumSample−LumLC)/(LumHC−LumLC). DMSO treated cells are employed as High Control (HC) and 2 μM of a known BRM/BRG1 degrader standard treated cells are employed as Low Control (LC).
On the technique in general: HiBiT is a short tag that completes a luciferase, so light tracks the accessible tagged protein.

In assay [1] the target is T2, HiBit-BRG1 fusion protein (Homo sapiens, UniProt P51532).
T2 construct: expressed in transfected cells
T2 sequence (P51532 whole entry, the tested form may be a part): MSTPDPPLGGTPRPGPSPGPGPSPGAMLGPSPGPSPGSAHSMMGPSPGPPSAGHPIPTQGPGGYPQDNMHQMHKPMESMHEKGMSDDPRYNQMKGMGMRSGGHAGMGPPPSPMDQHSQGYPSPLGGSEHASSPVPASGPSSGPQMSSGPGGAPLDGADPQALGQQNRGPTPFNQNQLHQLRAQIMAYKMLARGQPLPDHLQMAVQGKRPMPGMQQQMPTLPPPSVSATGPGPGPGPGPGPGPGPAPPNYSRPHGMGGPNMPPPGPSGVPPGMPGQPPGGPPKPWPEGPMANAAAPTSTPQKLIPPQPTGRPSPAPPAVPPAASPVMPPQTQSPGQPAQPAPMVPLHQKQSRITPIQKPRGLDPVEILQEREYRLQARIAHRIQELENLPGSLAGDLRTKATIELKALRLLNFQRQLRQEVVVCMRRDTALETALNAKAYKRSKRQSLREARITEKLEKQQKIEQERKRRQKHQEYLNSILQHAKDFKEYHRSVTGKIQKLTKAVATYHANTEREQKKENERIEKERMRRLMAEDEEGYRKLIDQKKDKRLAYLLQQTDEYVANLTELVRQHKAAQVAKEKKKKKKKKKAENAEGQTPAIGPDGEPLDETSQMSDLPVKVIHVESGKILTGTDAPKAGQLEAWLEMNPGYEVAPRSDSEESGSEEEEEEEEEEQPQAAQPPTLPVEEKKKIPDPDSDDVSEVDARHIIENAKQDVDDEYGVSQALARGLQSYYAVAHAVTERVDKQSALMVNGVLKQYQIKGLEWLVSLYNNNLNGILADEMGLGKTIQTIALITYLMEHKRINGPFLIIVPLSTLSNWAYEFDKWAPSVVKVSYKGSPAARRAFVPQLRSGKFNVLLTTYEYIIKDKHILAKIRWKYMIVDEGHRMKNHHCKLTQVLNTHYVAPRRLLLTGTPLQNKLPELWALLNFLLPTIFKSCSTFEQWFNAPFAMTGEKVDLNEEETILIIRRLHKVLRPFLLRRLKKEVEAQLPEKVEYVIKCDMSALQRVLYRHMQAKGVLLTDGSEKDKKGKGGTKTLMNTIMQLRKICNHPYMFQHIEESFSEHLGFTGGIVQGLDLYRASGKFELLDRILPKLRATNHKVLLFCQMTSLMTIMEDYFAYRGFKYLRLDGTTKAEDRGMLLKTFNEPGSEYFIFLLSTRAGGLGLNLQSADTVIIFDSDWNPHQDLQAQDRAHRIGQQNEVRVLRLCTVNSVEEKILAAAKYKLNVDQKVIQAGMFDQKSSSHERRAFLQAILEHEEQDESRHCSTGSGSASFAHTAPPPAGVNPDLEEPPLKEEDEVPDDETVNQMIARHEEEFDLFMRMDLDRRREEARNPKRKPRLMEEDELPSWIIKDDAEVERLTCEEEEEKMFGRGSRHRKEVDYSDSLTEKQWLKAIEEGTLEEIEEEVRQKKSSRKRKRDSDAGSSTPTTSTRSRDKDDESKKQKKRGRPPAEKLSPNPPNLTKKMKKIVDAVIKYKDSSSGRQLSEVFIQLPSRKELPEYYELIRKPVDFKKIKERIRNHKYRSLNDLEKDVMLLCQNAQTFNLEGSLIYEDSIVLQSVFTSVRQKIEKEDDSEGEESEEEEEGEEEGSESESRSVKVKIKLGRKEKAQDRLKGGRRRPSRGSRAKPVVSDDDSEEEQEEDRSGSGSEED
In words: HiBiT-BRG1 cell-based degradation assay (Nano-Glo HiBiT Lytic Detection, 24 h). Particulars: HeLa cells expressing HiBit-BRG1 and LgBit; for DC50: read-out: BRG1 HiBit Degradation IC50; for Dmax: HeLa, top dose 30 μM, read-out: BRG1 HiBit Degradation Maximum measured. Here is the method:
Procedure: A stable HeLa cell line expressing HiBiT-BRM was generated. On day 0, 5000 cells were seeded in 40 μL of media into each well of 384-well cell culture plates. […] Nano-Glo HiBiT Lytic Detection System (Promega N3050) reagent was freshly prepared and 20 ul was added to each well. Upon addition of this LgBit-containing reagent, the HiBiT and LgBiT proteins associate to form the luminescent NanoBiT luciferase. The plates were shaken for 10 minutes at room temperature and the bioluminescence read using an EnVision plate reader (PerkinElmer).
For measurement of BRG1 degradation, a stable HeLa cell line expressing HiBit-BRG1 and LgBit was generated. The same protocol as above was then followed.
as §1

T1 sequence (P51531 whole entry, the tested form may be a part): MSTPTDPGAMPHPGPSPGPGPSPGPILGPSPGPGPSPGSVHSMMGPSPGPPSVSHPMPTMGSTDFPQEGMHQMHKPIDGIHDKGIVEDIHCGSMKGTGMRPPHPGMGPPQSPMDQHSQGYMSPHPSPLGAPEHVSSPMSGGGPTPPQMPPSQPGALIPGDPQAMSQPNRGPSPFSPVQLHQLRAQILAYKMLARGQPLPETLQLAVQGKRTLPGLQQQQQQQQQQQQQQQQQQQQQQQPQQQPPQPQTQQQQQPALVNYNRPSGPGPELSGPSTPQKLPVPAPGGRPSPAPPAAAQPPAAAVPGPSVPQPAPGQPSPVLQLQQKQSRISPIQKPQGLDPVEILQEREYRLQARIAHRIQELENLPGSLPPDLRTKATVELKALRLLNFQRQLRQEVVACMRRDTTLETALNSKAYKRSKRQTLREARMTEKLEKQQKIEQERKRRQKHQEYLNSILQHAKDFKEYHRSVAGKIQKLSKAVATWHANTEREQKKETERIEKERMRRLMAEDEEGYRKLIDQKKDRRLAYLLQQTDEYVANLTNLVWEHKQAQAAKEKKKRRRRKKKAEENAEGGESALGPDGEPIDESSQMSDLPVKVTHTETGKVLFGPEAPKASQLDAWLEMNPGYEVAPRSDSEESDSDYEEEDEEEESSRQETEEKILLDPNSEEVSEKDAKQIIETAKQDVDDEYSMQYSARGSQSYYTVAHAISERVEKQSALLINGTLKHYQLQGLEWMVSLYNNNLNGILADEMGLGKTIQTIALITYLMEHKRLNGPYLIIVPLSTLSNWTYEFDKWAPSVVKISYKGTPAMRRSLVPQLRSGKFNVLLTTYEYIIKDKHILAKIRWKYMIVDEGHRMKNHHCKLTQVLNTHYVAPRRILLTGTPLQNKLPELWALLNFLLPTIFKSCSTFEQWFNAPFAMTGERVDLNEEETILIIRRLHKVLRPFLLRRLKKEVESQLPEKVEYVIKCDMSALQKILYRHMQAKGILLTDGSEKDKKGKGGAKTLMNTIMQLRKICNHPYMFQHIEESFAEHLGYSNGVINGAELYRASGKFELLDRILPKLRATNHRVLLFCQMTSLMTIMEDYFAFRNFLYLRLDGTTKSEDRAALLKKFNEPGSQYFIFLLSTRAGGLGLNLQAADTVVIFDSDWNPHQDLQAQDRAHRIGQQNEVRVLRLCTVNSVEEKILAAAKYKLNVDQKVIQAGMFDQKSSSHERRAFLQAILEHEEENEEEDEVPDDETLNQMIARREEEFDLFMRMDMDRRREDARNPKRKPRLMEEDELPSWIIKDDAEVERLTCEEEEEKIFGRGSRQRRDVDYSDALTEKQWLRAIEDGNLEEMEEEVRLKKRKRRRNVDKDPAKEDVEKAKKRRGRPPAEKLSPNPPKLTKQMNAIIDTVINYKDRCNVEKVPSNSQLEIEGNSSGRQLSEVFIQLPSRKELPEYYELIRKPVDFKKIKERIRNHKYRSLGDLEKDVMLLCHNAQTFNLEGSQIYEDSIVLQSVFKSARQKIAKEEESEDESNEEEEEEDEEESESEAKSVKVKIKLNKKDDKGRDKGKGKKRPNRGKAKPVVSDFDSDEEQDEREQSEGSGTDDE

On to `CS(=O)(=O)n1ccc(C(=O)NCC(=O)Nc2nc(-c3cccc(-c4ccnc(C5(C(=O)NCCCCCNc6cccc7c6C(=O)N(C6CCC(=O)NC6=O)C7=O)CC5)c4)c3)cs2)c1` (stereo not drawn) [Compound 12, N-(2-((4-(3-(2-(1-((5-((2-(2,6-dioxopiperidin-3-yl)-1,3-dioxoisoindolin-4-yl)amino)pentyl)carbamoyl)cyclopropyl)-pyridin-4-yl)phenyl)thiazol-2-yl)amino)-2-oxoethyl)-1-(methylsulfonyl)-1H-pyrrole-3-carboxamide], for which, on HiBit-BRM fusion protein, the DC50 is more than 10 µM and the “BRM HiBit Degradation Maximum measured” value is “C (‘C’ = Maximum degradation <50%)”. In addition, in assay [1], the DC50 lay in the range of 0.1 to 1 µM and the Dmax is more than 75%.
The corresponding values for `CS(=O)(=O)n1ccc(C(=O)NCC(=O)Nc2nc(-c3cccc(-c4ccnc(C5(C(=O)NCCCCCCCCNC(=O)COc6cccc7c6C(=O)N(C6CCC(=O)NC6=O)C7=O)CC5)c4)c3)cs2)c1` (stereo not drawn) [Compound 13, N-(2-((4-(3-(2-(1-((8-(2-((2-(2,6-dioxopiperidin-3-yl)-1,3-dioxoisoindolin-4-yl)oxy)acetamido)octyl)carbamoyl)-cyclopropyl)pyridin-4-yl)phenyl)thiazol-2-yl)amino)-2-oxoethyl)-1-(methylsulfonyl)-1H-pyrrole-3-carboxamide] are more than 10 µM, “C (‘C’ = Maximum degradation <50%)”, 0.1 to 1 µM and 50 to 75%.
In the case of `CS(=O)(=O)n1ccc(C(=O)NCC(=O)Nc2nc(-c3cccc(-c4ccnc(C5(C(=O)N6CCC(C7CCN(C(=O)COc8cccc9c8C(=O)N(C8CCC(=O)NC8=O)C9=O)CC7)CC6)CC5)c4)c3)cs2)c1` (stereo not drawn) [Compound 14, N-(2-((4-(3-(2-(1-(1′-(2-((2-(2,6-dioxopiperidin-3-yl)-1,3-dioxoisoindolin-4-yl)oxy)acetyl)-[4,4′-bipiperidine]-1-carbonyl)cyclopropyl)pyridin-4-yl)phenyl)thiazol-2-yl)amino)-2-oxoethyl)-1-(methylsulfonyl)-1H-pyrrole-3-carboxamide], on HiBit-BRM fusion protein, the DC50 is more than 10 µM and the “BRM HiBit Degradation Maximum measured” value is listed as “C (‘C’ = Maximum degradation <50%)”. Moreover, in assay [1], the DC50 is more than 10 µM and the Dmax is less than 50%.
As for `CN(CC(=O)NCCCCCCCCNC(=O)COc1cccc2c1C(=O)N(C1CCC(=O)NC1=O)C2=O)c1cc(-c2cccc(-c3csc(NC(=O)CNC(=O)c4ccn(S(C)(=O)=O)c4)n3)c2)ccn1` (stereo not drawn) [Compound 15, N-(2-((4-(3-(2-((2-((8-(2-((2-(2,6-dioxopiperidin-3-yl)-1,3-dioxoisoindolin-4-yl)oxy)acetamido)octyl)amino)-2-oxoethyl)(methyl)amino)pyridin-4-yl)phenyl)thiazol-2-yl)amino)-2-oxoethyl)-1-(methylsulfonyl)-1H-pyrrole-3-carboxamide], at HiBit-BRM fusion protein, the DC50 was more than 10 µM and the “BRM HiBit Degradation Maximum measured” value is “C (‘C’ = Maximum degradation <50%)”. In addition, in assay [1], the DC50 is more than 10 µM and the Dmax was less than 50%.
With `CN(CC(=O)NCCCCCNc1cccc2c1C(=O)N(C1CCC(=O)NC1=O)C2=O)c1cc(-c2cccc(-c3csc(NC(=O)CNC(=O)c4ccn(S(C)(=O)=O)c4)n3)c2)ccn1` (stereo not drawn) [Compound 16, N-(2-((4-(3-(2-((2-((5-((2-(2,6-dioxopiperidin-3-yl)-1,3-dioxoisoindolin-4-yl)amino)pentyl)amino)-2-oxoethyl)(methyl)amino)pyridin-4-yl)phenyl)thiazol-2-yl)amino)-2-oxoethyl)-1-(methylsulfonyl)-1H-pyrrole-3-carboxamide], at HiBit-BRM fusion protein, the DC50 was more than 10 µM and the “BRM HiBit Degradation Maximum measured” value is recorded as “C (‘C’ = Maximum degradation <50%)”. In assay [1], the DC50 is more than 10 µM and the Dmax was less than 50%.
With `CN(CC(=O)N1CCC(C2CCN(C(=O)COc3cccc4c3C(=O)N(C3CCC(=O)NC3=O)C4=O)CC2)CC1)c1cc(-c2cccc(-c3csc(NC(=O)CNC(=O)c4ccn(S(C)(=O)=O)c4)n3)c2)ccn1` (stereo not drawn) [Compound 17, N-(2-((4-(3-(2-((2-(1′-(2-((2-(2,6-dioxopiperidin-3-yl)-1,3-dioxoisoindolin-4-yl)oxy)acetyl)-[4,4′-bipiperidin]-1-yl)-2-oxoethyl)(methyl)amino)pyridin-4-yl)phenyl)thiazol-2-yl)amino)-2-oxoethyl)-1-(methylsulfonyl)-1H-pyrrole-3-carboxamide], at HiBit-BRM fusion protein, the DC50 is more than 10 µM and the “BRM HiBit Degradation Maximum measured” value is “C (‘C’ = Maximum degradation <50%)”. In assay [1], the DC50 was more than 10 µM and the Dmax is less than 50%.
With `Cc1ncsc1-c1ccc(CNC(=O)[C@@H]2C[C@@H](O)CN2C(=O)[C@@H](NC(=O)COCC(=O)NCc2cccc(-c3cccc(-c4csc(NC(=O)CNC(=O)c5ccn(S(C)(=O)=O)c5)n4)c3)c2)C(C)(C)C)cc1` [Compound 18, N-[2-[[4-[3-[3-[[[2-[2-[[(1S)-1-[(2S,4R)-4-hydroxy-2-[[4-(4-methylthiazol-5-yl)phenyl]methylcarbamoyl]pyrrolidine-1-carbonyl]-2,2-dimethyl-propyl]amino]-2-oxo-ethoxy]acetyl]amino]methyl]-phenyl]phenyl]thiazol-2-yl]amino]-2-oxo-ethyl]-1-methylsulfonyl-pyrrole-3-carboxamide], at HiBit-BRM fusion protein, the DC50 is more than 10 µM and the “BRM HiBit Degradation Maximum measured” value is reported as “C (‘C’ = Maximum degradation <50%)”. Also, in assay [1], the DC50 was more than 10 µM and the Dmax is less than 50%.
For the compound `Cc1ncsc1-c1ccc(CNC(=O)[C@@H]2C[C@@H](O)CN2C(=O)[C@@H](NC(=O)CCCCCCCCC(=O)NCc2cccc(-c3cccc(-c4csc(NC(=O)CNC(=O)c5ccn(S(C)(=O)=O)c5)n4)c3)c2)C(C)(C)C)cc1` [Compound 19, N′-[(1S)-1-[(2S,4R)-4-hydroxy-2-[[4-(4-methylthiazol-5-yl)phenyl]methylcarbamoyl]pyrrolidine-1-carbonyl]-2,2-dimethylpropyl]-N-[[3-[3-[2-[[2-[(1-methylsulfonylpyrrole-3-carbonyl)amino]acetyl]amino]thiazol-4-yl]phenyl]phenyl]methyl]decanediamide], on HiBit-BRM fusion protein, the DC50 is less than 0.1 µM and the “BRM HiBit Degradation Maximum measured” value is “A (‘A’ = Maximum degradation >75%)”. Moreover, in assay [1], the DC50 was 0.1 to 1 µM and the Dmax was more than 75%.
For `CS(=O)(=O)n1ccc(C(=O)NCC(=O)Nc2nc(-c3cccc(-c4cccc(CNC(=O)CCCCCCCCNc5cccc6c5C(=O)N(C5CCC(=O)NC5=O)C6=O)c4)c3)cs2)c1` (stereo not drawn) [Compound 20, N-(2-((4-(3′-((9-((2-(2,6-dioxopiperidin-3-yl)-1,3-dioxoisoindolin-4-yl)amino)nonanamido)methyl)-[1,1′-biphenyl]-3-yl)thiazol-2-yl)amino)-2-oxoethyl)-1-(methylsulfonyl)-1H-pyrrole-3-carboxamide], at HiBit-BRM fusion protein, the DC50 is more than 10 µM and the “BRM HiBit Degradation Maximum measured” value was “C (‘C’ = Maximum degradation <50%)”. Also, in assay [1], the DC50 is more than 10 µM and the Dmax fell in the range of 50 to 75%.
As to `CN(CCNC(=O)CN(C)c1cc(-c2cccc(-c3csc(NC(=O)CNC(=O)c4ccn(S(C)(=O)=O)c4)n3)c2)ccn1)CCNc1cccc2c1C(=O)N(C1CCC(=O)NC1=O)C2=O` (stereo not drawn) [Compound 21, N-(2-((4-(3-(2-((2-((2-((2-((2-(2,6-dioxopiperidin-3-yl)-1,3-dioxoisoindolin-4-yl)amino)ethyl)(methyl)amino)ethyl)amino)-2-oxoethyl)(methyl)amino)pyridin-4-yl)phenyl)thiazol-2-yl)amino)-2-oxoethyl)-1-(methylsulfonyl)-1H-pyrrole-3-carboxamide], at HiBit-BRM fusion protein, the DC50 is more than 10 µM and the “BRM HiBit Degradation Maximum measured” value is reported as “C (‘C’ = Maximum degradation <50%)”. For the same compound, in assay [1], the DC50 is more than 10 µM and the Dmax was less than 50%.
Regarding `CN(CC(=O)N1CC(COc2cccc3c2C(=O)N(C2CCC(=O)NC2=O)C3=O)C1)c1cc(-c2cccc(-c3csc(NC(=O)CNC(=O)c4ccn(S(C)(=O)=O)c4)n3)c2)ccn1` (stereo not drawn) [Compound 27], at HiBit-BRM fusion protein, the DC50 is more than 10 µM and the “BRM HiBit Degradation Maximum measured” value is “C (‘C’ = Maximum degradation <50%)”. In assay [1], the DC50 was more than 10 µM and the Dmax is less than 50%.
As for `CN(CC(=O)NCCCCS(=O)(=O)CCCNc1cccc2c1C(=O)N(C1CCC(=O)NC1=O)C2=O)c1cc(-c2cccc(-c3csc(NC(=O)CNC(=O)c4ccn(S(C)(=O)=O)c4)n3)c2)ccn1` (stereo not drawn) [Compound 29], at HiBit-BRM fusion protein, the DC50 was more than 10 µM and the “BRM HiBit Degradation Maximum measured” value is “C (‘C’ = Maximum degradation <50%)”. Also, in assay [1], the DC50 was more than 10 µM and the Dmax was less than 50%.

(Values after patent publication US12662479B2 (Foghorn Therapeutics Inc., priority 2020, dated 2026).)
